According to BindingDB's records for doi:10.7270/Q2CN728N (Nmmlsc, 2008):

The molecules below were run against T1, Bcl-2-related protein A1 (Homo sapiens, UniProt Q16548) (assay: inhibitors of Bim binding to Bfl-1, dose response, biochemical, multiplexed, bead-based flow cytometry (AID 1320)). Conditions: inactive by the depositor's call; pH 7.4; 4 °C.
T1 sequence (Q16548 whole entry): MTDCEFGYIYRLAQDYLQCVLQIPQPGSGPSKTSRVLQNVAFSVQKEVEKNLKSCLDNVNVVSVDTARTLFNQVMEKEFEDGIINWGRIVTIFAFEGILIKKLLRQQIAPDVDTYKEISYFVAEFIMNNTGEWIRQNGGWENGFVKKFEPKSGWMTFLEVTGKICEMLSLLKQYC

| EC50 [µM] | Compound |
| --- | --- |
| 3.05 | COc1ccc(OC)c(-n2c(S)nnc2-c2ccc(C)cc2)c1 [SMR000155418] |
| 26.8 | CCC(=O)OCCNc1cc(Sc2nccn2C)c2nonc2c1[N+](=O)[O-] [SMR000207033] |
| 4.01 | CCN1C(=O)/C(=C\C=C2/C=CC=CN2CC)SC1=S [SMR000225150] |
| 15 | CNc1ccc(Br)cc(C(=O)/C=C/c2ccc(OC)cc2)c1=O [SMR000229850] |
| 12.2 | CCN(CC)c1ccc(NC(=O)c2ccccc2F)cc1S(=O)(=O)Nc1ccccc1OC [SMR000241522] |
| 42.3 | COc1cc(OC)c([N+](=O)[O-])cc1[CH+][N-]NC(=O)c1ccncc1 [SMR000306621] |
| 0.55 | CCOC(=O)CSC1=NC(=O)/C(=C/c2ccc(Br)cc2)S1 [ethyl 2-[[(5Z)-5-[(4-bromophenyl)methylidene]-4-oxo-1,3-thiazol-2-yl]sulfanyl]acetate] |

The remaining lines, values behind:

| Compound | EC50 [µM] |
| --- | --- |
| Nc1ccc(C2=Nc3cccc4cccc(c34)N2)cc1 [SMR000175908] | 16.1 |
| S=c1[nH]cc(-c2ccccc2)n1-c1ccccc1 [SMR000196363] | 1.92 |
| O=C1c2ccccc2-c2onc3ccc(N4CCCC4)c1c23 [SMR000279741] | 24.8 |
| COc1ccccc1-n1c(-c2cc(-c3ccc(F)cc3)[nH]n2)n[nH]c1=S [SMR000293072] | 5.04 |
| O=c1c2c(-c3ccccc3)csc2nc2c3ccccc3c(NCCN3CCOCC3)nn12 [SMR000352519] | 30.3 |

Same assay, conditions: pH 7.4; 4 °C

| EC50 [µM] | Compound |
| --- | --- |
| 1.12 | COC(=O)c1c(C(=O)OC)c2cccc3cc(-c4ccccc4)c4ccc1c4n32 [SMR000161417] |
| 3.33 | CCOC(=O)CSC1=NC(=O)/C(=C\c2ccc(OC(C)=O)cc2)S1 [SMR000180755] |
| 9.57 | C#CCn1cc(C=C2C(=O)c3ccccc3C2=O)c2ccccc21 [SMR000196125] |
| 1.63 | CCC(=O)OCCNc1cc(Sc2nc3ccccc3[nH]2)c2nonc2c1[N+](=O)[O-] [SMR000207032] |
| 31.7 | CNCc1ccccc1Sc1ccc(O)c(O)c1 [SMR000230497] |
| 0.56 | Cc1nc2scc(-c3ccccc3)c2c(=O)n1N=C1C=CC(=O)C=C1 [SMR000285999] |
| 6.78 | CC(=NNC(=O)c1cc(O)c(O)c(O)c1)c1ccc([N+](=O)[O-])cc1 [SMR000312589] |
| 41.1 | CCN1/C(=C/C(C)=C/c2sc3ccccc3[n+]2CC)Sc2ccccc21 [SMR000354813] |
| 1.03 | CCN(CC)C(=O)COC(=O)c1cc(-c2ccco2)nc2ccccc12 [SMR000377201] |
| 1.77 | Cn1c(=O)c(C(=O)COC(=O)c2cc(-c3ccco3)nc3ccccc23)c(N)n(Cc2ccccc2)c1=O [[2-(6-amino-1-benzyl-3-methyl-2,4-dioxopyrimidin-5-yl)-2-oxoethyl] 2-(furan-2-yl)quinoline-4-carboxylate] |
| 3.2 | CCOC(=O)C1=C(Cc2ccc(C)cc2)C(=O)c2ccccc2C1=O [ethyl 3-[(4-methylphenyl)methyl]-1,4-bis(oxidanylidene)naphthalene-2-carboxylate] |

More lines, now with the values behind:

| Compound | EC50 [µM] |
| --- | --- |
| O=C(Nc1cccc(C(F)(F)F)c1)c1ccc2nc(-c3ccco3)c(-c3ccco3)nc2c1 [SMR000142217] | 2.96 |
| O=c1[nH]c2ccc(N=Cc3c(O)ccc4cc(Br)ccc34)cc2[nH]1 [SMR000171789] | 4.46 |
| Cc1ccc(-c2nc(N3CCOCC3)s[n+]2-c2ccccc2)cc1 [SMR000225370] | 0.02 |
| Oc1ccc(NCc2ccccc2OCc2ccccc2)cc1 [SMR000231540] | 1.12 |
| CN=c1scc(-c2cccs2)n1N=Cc1ccc(O)c(O)c1O [SMR000242177] | 5.71 |
| Nc1c(C(=O)NCC2CCCO2)sc2nc3c(c(-c4ccco4)c12)CC/C3=C\c1ccco1 (stereo not drawn) [SMR000259502] | 0.87 |
| Nc1c(C(=O)NC2CC2)sc2nc3c(c(-c4ccco4)c12)CC/C3=C/c1ccco1 [SMR000259554] | 1.09 |
| C=C[S+]([O-])c1sc(Cl)c(N2CCOCC2)c1[N+](=O)[O-] (stereo not drawn) [SMR000293370] | 0.85 |
| CC1CC(=Cc2cccc(F)c2)C2=NC(=S)NC(c3cccc(F)c3)C2C1 (stereo not drawn) [SMR000306148] | 15.2 |
| O=C(O)c1ccc(NC2=CC(=NS(=O)(=O)c3ccccc3)c3ccccc3C2=O)cc1 [SMR000313157] | 9.21 |
